Read-outs that look alike come from different tables or passages of the source.
Columns and labels:
[1] = Biodistribution in U87MG tumor-bearing mice; assay type: in vivo; conditions: female, CD-1 nude (athymic nude), mouse, iv, total radioactivity, i.v. ~5 MBq (~1 nmol), mean ± SD; for tissue to tissue ratio at 0.5 h / tissue uptake at 0.5 h: 30 min p.i.; for tissue to tissue ratio at 5 h / tissue uptake at 5 h: 5 h p.i.
Method: Female athymic nude mice (CD-1 nude), age 5–6 weeks, were obtained from Charles River Laboratories, Sulzfeld, Germany. U87MG cells and AR42J-cells were suspended in PBS (5 × 10^6 cells in 100 μL) and subcutaneously inoculated on each shoulder. Two to three weeks later, when the tumor reached a size of about 300–500 mm^3, the mice were used for the in vivo studies.
Biodistribution studies were performed with U87MG tumor and AR42J tumor-bearing mice 2 weeks after tumor cell inoculation. ^44Sc- and ^68Ga-labeled peptides (~5 MBq, ~1 nmol per mouse) were intravenously injected in a volume of 100–200 μL. Mice were sacrificed at 30 min, 2 h and 5 h after injection (p.i.) of the ^44Sc-labeled peptides. Mice which were injected with ^68Ga-labeled peptides were sacrificed at 30 min and 2 h p.i. Selected tissues and organs were collected, weighed, and counted for radioactivity using a γ-counter (Wallac Wizard 1480, Perkin Elmer). The results were listed as a percentage of the injected activity per gram of tissue mass (% IA/g), using counts of a defined volume of the original injection solution counted at the same time. The data were analyzed for significance using a two-way ANOVA test (Graph Pad Prism 6 software, version 6.05). A p-value of < 0.05 was considered statistically significant.

U87MG tumor-bearing mice = test: PET/CT imaging of U87MG tumor-bearing mice; assay type: in vivo; conditions: 3 h after i.v. injection of ~10 MBq (~1 nmol), one or two mice
Method: The energy window was set to 150–650 keV. […] All static PET scans lasted for 20 min.

[2] = U87MG tumor / blood, n=3, read-out: Tumor-to-blood ratio
[3] = U87MG tumor / kidneys, n=3, read-out: Tumor-to-kidney ratio
[4] = U87MG tumor / liver, n=3, read-out: Tumor-to-liver ratio
[5] = U87MG tumor, n=3, read-out: Biodistribution, U87MG Tumor
[6] = blood, 5 MBq per mouse, n=3, read-out: Biodistribution, Blood
[7] = bone, 5 MBq per mouse, n=3, read-out: Biodistribution, Bone
[8] = brain, 5 MBq per mouse, n=3, read-out: Biodistribution, Brain
[9] = heart, 5 MBq per mouse, n=3, read-out: Biodistribution, Heart
[10] = intestines, 5 MBq per mouse, n=3, read-out: Biodistribution, Intestines
[11] = kidneys, n=3, read-out: Biodistribution, Kidneys
[12] = liver, n=3, read-out: Biodistribution, Liver
[13] = lung, 5 MBq per mouse, n=3, read-out: Biodistribution, Lung
[14] = muscle, 5 MBq per mouse, n=3, read-out: Biodistribution, Muscle
[15] = skin, 5 MBq per mouse, n=3, read-out: Biodistribution, Skin
[16] = spleen, 5 MBq per mouse, n=3, read-out: Biodistribution, Spleen
[17] = stomach, 5 MBq per mouse, n=3, read-out: Biodistribution, Stomach

Question: Which tissue to tissue ratio at 0.5 h [1, 2] does the source give for `N=C(N)NCCC[C@@H]1NC(=O)[C@H](CCCCNC(=O)CCC(C(=O)O)N2CCN(CC(=O)O)CCN(CC(=O)O)CC2)NC(=O)[C@@H](Cc2ccc(O)cc2)NC(=O)[C@H](CC(=O)O)NC(=O)CNC1=O` (some centres unmarked) [^44Sc-NODAGA-RGD, metal not drawn] here?
Answer: Its tissue to tissue ratio at 0.5 h is 4.73 ± 1.24.

Question: And the tissue to tissue ratio at 5 h [1, 2]?
Answer: Its tissue to tissue ratio at 5 h is 30.5 ± 9.93.

Question: And the tissue to tissue ratio at 0.5 h [1, 3]?
Answer: The tissue to tissue ratio at 0.5 h was 1.18 ± 0.28.

Question: And the tissue to tissue ratio at 2 h ([1]; U87MG tumor / kidneys, 2 h p.i., n=3, read-out: Tumor-to-kidney ratio)?
Answer: Its tissue to tissue ratio at 2 h is 2.68 ± 0.14.

Question: What about the tissue to tissue ratio at 5 h [1, 3] of the same compound?
Answer: Its tissue to tissue ratio at 5 h is 2.58 ± 0.24.

Question: What about the tissue to tissue ratio at 0.5 h [1, 4] of the same compound?
Answer: Its tissue to tissue ratio at 0.5 h is 3.02 ± 0.4.

Question: What about the tissue to tissue ratio at 5 h [1, 4] of the same compound?
Answer: Its tissue to tissue ratio at 5 h is 2.82 ± 0.21.

Question: And the tissue uptake at 0.5 h [1, 5]?
Answer: The tissue uptake at 0.5 h was 4.5 ± 0.77 %ID/g.

Question: And the tissue uptake at 5 h [1, 5]?
Answer: Its tissue uptake at 5 h is 3.01 ± 0.55 %ID/g.

Question: What about the tissue uptake at 0.5 h [1, 6] of the same compound?
Answer: The tissue uptake at 0.5 h was 0.98 ± 0.21 %ID/g.

Question: What about the tissue uptake at 5 h [1, 6] of the same compound?
Answer: Its tissue uptake at 5 h is 0.11 ± 0.07 %ID/g.

Question: And the tissue uptake at 0.5 h [1, 7]?
Answer: The tissue uptake at 0.5 h was 1.53 ± 0.16 %ID/g.

Question: What about the tissue uptake at 5 h [1, 7] of the same compound?
Answer: The tissue uptake at 5 h was 0.76 ± 0.03 %ID/g.

Question: And the tissue uptake at 0.5 h [1, 8]?
Answer: The tissue uptake at 0.5 h was 0.1 ± 0.01 %ID/g.

Question: And the tissue uptake at 5 h [1, 8]?
Answer: The tissue uptake at 5 h was 0.06 ± 0.01 %ID/g.

Question: And the tissue uptake at 0.5 h [1, 9]?
Answer: The tissue uptake at 0.5 h was 0.89 ± 0.13 %ID/g.

Question: And the tissue uptake at 2 h ([1]; heart, 5 MBq per mouse, 2 h p.i., n=3, read-out: Biodistribution, Heart)?
Answer: Its tissue uptake at 2 h is 0.44 ± 0.04 %ID/g.

Question: And the tissue uptake at 5 h [1, 9]?
Answer: The tissue uptake at 5 h was 0.35 ± 0.13 %ID/g.

Question: What about the tissue uptake at 0.5 h [1, 10] of the same compound?
Answer: Its tissue uptake at 0.5 h is 1.76 ± 0.22 %ID/g.

Question: What about the tissue uptake at 2 h ([1]; intestines, 5 MBq per mouse, 2 h p.i., n=3, read-out: Biodistribution, Intestines) of the same compound?
Answer: The tissue uptake at 2 h was 0.91 ± 0.16 %ID/g.

Question: And the tissue uptake at 5 h [1, 10]?
Answer: Its tissue uptake at 5 h is 0.75 ± 0.13 %ID/g.

Question: And the tissue uptake at 2 h ([1]; kidneys, 5 MBq per mouse, 2 h p.i., n=3, read-out: Biodistribution, Kidneys)?
Answer: Its tissue uptake at 2 h is 1.5 ± 0.3 %ID/g.

Question: What about the tissue uptake at 0.5 h [1, 11] of the same compound?
Answer: The tissue uptake at 0.5 h was 3.89 ± 0.68 %ID/g.

Question: And the tissue uptake at 5 h [1, 11]?
Answer: Its tissue uptake at 5 h is under 2 %ID/g.

Question: And the tissue uptake at 0.5 h [1, 12]?
Answer: The tissue uptake at 0.5 h was 1.49 ± 0.06 %ID/g.

Question: And the tissue uptake at 2 h ([1]; liver, 2 h p.i., n=3, read-out: Biodistribution, Liver)?
Answer: Its tissue uptake at 2 h is 1.34 ± 0.27 %ID/g.

Question: What about the tissue uptake at 5 h [1, 12] of the same compound?
Answer: The tissue uptake at 5 h was about 1 %ID/g.

Question: And the tissue uptake at 0.5 h [1, 13]?
Answer: Its tissue uptake at 0.5 h is 2.2 ± 0.68 %ID/g.

Question: And the tissue uptake at 5 h [1, 13]?
Answer: Its tissue uptake at 5 h is 0.65 ± 0.16 %ID/g.

Question: What about the tissue uptake at 0.5 h [1, 14] of the same compound?
Answer: The tissue uptake at 0.5 h was 0.68 ± 0.03 %ID/g.

Question: What about the tissue uptake at 5 h [1, 14] of the same compound?
Answer: The tissue uptake at 5 h was 0.3 ± 0.06 %ID/g.

Question: And the tissue uptake at 2 h ([1]; pancreas, 5 MBq per mouse, 2 h p.i., n=3, read-out: Biodistribution, pancreas)?
Answer: The tissue uptake at 2 h was 0.43 ± 0.04 %ID/g.

Question: And the tissue uptake at 5 h ([1]; pancreas, 5 MBq per mouse, n=3, read-out: Biodistribution, pancreas)?
Answer: Its tissue uptake at 5 h is 0.37 ± 0.07 %ID/g.

Question: What about the tissue uptake at 0.5 h ([1]; pancreas, n=3, read-out: Biodistribution, pancreas) of the same compound?
Answer: The tissue uptake at 0.5 h was 0.73 ± 0.22 %ID/g.

Question: What about the tissue uptake at 0.5 h [1, 15] of the same compound?
Answer: Its tissue uptake at 0.5 h is 1.97 ± 0.17 %ID/g.

Question: What about the tissue uptake at 2 h ([1]; skin, 5 MBq per mouse, 2 h p.i., n=3, read-out: Biodistribution, Skin) of the same compound?
Answer: The tissue uptake at 2 h was 1.3 ± 0.13 %ID/g.

Question: What about the tissue uptake at 5 h [1, 15] of the same compound?
Answer: The tissue uptake at 5 h was 1.21 ± 0.34 %ID/g.

Question: And the tissue uptake at 0.5 h [1, 16]?
Answer: The tissue uptake at 0.5 h was 1.63 ± 0.21 %ID/g.

Question: And the tissue uptake at 2 h ([1]; spleen, 5 MBq per mouse, 2 h p.i., n=3, read-out: Biodistribution, Spleen)?
Answer: The tissue uptake at 2 h was 1.58 ± 0.31 %ID/g.

Question: And the tissue uptake at 5 h [1, 16]?
Answer: Its tissue uptake at 5 h is 0.95 ± 0.19 %ID/g.

Question: And the tissue uptake at 0.5 h [1, 17]?
Answer: The tissue uptake at 0.5 h was 1.69 ± 0.16 %ID/g.

Question: What about the tissue uptake at 2 h ([1]; stomach, 5 MBq per mouse, 2 h p.i., n=3, read-out: Biodistribution, Stomach) of the same compound?
Answer: Its tissue uptake at 2 h is 1.01 ± 0.32 %ID/g.

Question: What about the tissue uptake at 5 h [1, 17] of the same compound?
Answer: The tissue uptake at 5 h was 0.8 ± 0.03 %ID/g.

Question: What about the “PET/CT distribution of radioactivity (in words)” value (U87MG tumor-bearing mice) of the same compound?
Answer: The value was “comparable to ^68Ga-NODAGA-RGD but showed somewhat more background activity in the abdominal tract”.
